Active and inactive are the calls of the source.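 The calls were made as follows: active = mean half-maximal activating concentration from the dose-response fit at or below a set limit; inactive = the rest.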

The results in this text go back to PubChem BioAssay AID489040 (Sanford-Burnham Center for Chemical Genomics, 2010).

The experiment has as its target CHO-XBP1 luciferase reporter, IRE1-XBP1 UPR activation. Kind of experiment: activators of IRE1-XBP1 UPR arm, dose response, counter-screen for apoptotic UPR arm activators, CHO-XBP1 cells, luminescence (AID 489040).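 Also: reporter read after six hours of compound exposure.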
For the compound `Cc1ccc(CS(=O)(=O)c2ncc(Cl)c(C(=O)Nc3ccc(OC(F)F)cc3)n2)cc1`, the EC50 is > 80 µM (inactive).
As to `C=CCSC(=C(C#N)C#N)c1cc2c([nH]1)CCCC2`, the EC50 was > 80 µM (inactive).
To `CC1CCC/C=C/C2CC(O)CC2C(O)/C=C/C(=O)O1` (configuration not stated) belongs > 80 µM (inactive); to `Cc1[nH]c2c(C)cccc2c1CCNC(=O)c1ccc2c(c1[N+](=O)[O-])C(=O)c1ccccc1C2=O`, > 80 µM (inactive); to `CC1=NOC(=O)/C1=C\c1ccc(-c2cccc(Cl)c2)o1`, > 80 µM (inactive).
With `CC(C)N1C/C(=C/c2ccsc2)C(=O)/C(=C/c2ccsc2)C1`, the EC50 was > 80 µM (inactive).
On to `COc1ccc(N=c2oc3c(OC)cccc3cc2C(=O)NCc2ccco2)cc1OC`, for which the EC50 is > 80 µM (inactive).
For the compound `COc1ccccc1N1C(=O)C=C(Sc2nc(C)cc(C)n2)C1=O`, the EC50 was > 80 µM (inactive).
On to `COc1ccc(N2CCN(Cc3cc(=O)oc4cc(-c5ccccc5)c(O)cc34)CC2)cc1`, for which the EC50 was > 80 µM (inactive).
Regarding `O=C(Nc1nc2c(F)cc(F)cc2s1)c1ccccn1`, the EC50 is > 80 µM (inactive).
Consider `CC1=CC(C)(C)Nc2ccc(OC(=O)CN3C(=O)CCC3=O)cc21`, for which the EC50 is > 80 µM (inactive).
For `CCN1CSC(=S)N(Cc2ccccc2)C1`, the EC50 is > 80 µM (inactive).
As for `CC(=O)c1cccc(NC(=O)CSc2ncc(C(=O)Nc3ccccc3)c(=O)n2C)c1`, the figure is > 80 µM (inactive).
As to `Cc1nc2ccccc2n1-c1nc(-c2ccco2)cc(C(F)(F)F)n1`, the EC50 is > 80 µM (inactive).
For `C/C(=N\NC(=O)c1cc2ccccc2cc1O)c1ccccn1`, the EC50 was > 80 µM (inactive).
`COc1ccccc1N=c1oc2c(OC)cccc2cc1C(=O)NCc1ccco1`: the EC50 entry was “inactive”.
To `CCOC(=O)C(=Cc1ccc(-n2cncn2)cc1)C(=O)OCC` belongs > 80 µM (inactive); to `CC(NC(=O)CN(c1cccc(C(F)(F)F)c1)S(=O)(=O)c1ccc(Cl)c([N+](=O)[O-])c1)c1ccccc1` (configuration not stated), > 80 µM (inactive); to `COc1cc(/C=C2\CC(C(C)(C)C)C/C(=C\c3cc(OC)c(OC)c(OC)c3)C2=O)cc(OC)c1OC` (configuration not stated), > 80 µM (inactive).
Turning to `COc1ccc(-c2ccc(-c3nc4c(c(=O)[nH]c(=O)n4Cc4ccccc4)n3C)o2)c([N+](=O)[O-])c1`, the EC50 was > 80 µM (inactive).
Consider `COc1ccc(/C=C/C(=O)c2ccc([N+](=O)[O-])o2)cc1`, for which the EC50 was > 80 µM (inactive).
`COc1cc(NS(=O)(=O)c2ccc3ccccc3c2)c2ncccc2c1`: the EC50 is 15.5 µM.
In the case of `CC(C)c1cccc(-c2ccc3c(c2)S(=O)(=O)c2cccc(C(=O)NCc4ccccc4Cl)c2C3=O)c1`, the EC50 is 11.2 µM.
To `COc1ccccc1N1CCN(/N=C/c2ccc(O)c(O)c2)CC1` belongs > 80 µM (inactive); to `Oc1ccc(/C=N/N(c2ccccc2)c2ccccc2)cc1O`, “inactive”.
With `Cc1cccc(CSc2cccc3cccnc23)c1`, the EC50 is > 80 µM (inactive).
In the case of `CC1=CC(C)(C)Nc2ccc(OC(=O)CN3C(=O)C4CCCCC4C3=O)cc21` (configuration not stated), the EC50 is > 80 µM (inactive).
`CCOc1ccc(N2C(=O)CC(N(O)c3ccccc3)C2=O)cc1` (configuration not stated): the EC50 is > 80 µM (inactive).
Turning to `Cc1cc(C(=O)CCl)c(C)n1CCc1ccccc1`, the EC50 was > 80 µM (inactive).
Take `O=C(Oc1ccccc1/C=C\C(=O)c1cc2ccccc2o1)c1ccccc1`: the EC50 is > 80 µM (inactive).
As to `CN1C(=O)NC(=O)/C(=C\C=C\c2ccccc2[N+](=O)[O-])C1=O`, the EC50 is > 80 µM (inactive).
`N#Cc1cc([N+](=O)[O-])c(-n2nnc3ccccc32)c([N+](=O)[O-])c1`: the EC50 result is “inactive”.
Take `Cn1nnnc1Sc1ncnc2scc(-c3cc4ccccc4o3)c12`: the EC50 was > 80 µM (inactive).
On to `COC(=O)c1c(NC(=O)c2ccc([N+](=O)[O-])o2)sc2c1CCN(C(C)C)C2`, for which the EC50 is > 80 µM (inactive).
As for `Cc1ccc(NC(=O)c2ccc(N/N=C/c3cccc(O)c3)c([N+](=O)[O-])c2)cc1`, the figure is > 80 µM (inactive); as for `Cc1ccc(S(=O)(=O)Nc2cccc3cccnc23)cc1`, > 80 µM (inactive).
On to `Cc1ccc(C(=O)Cn2c(C(=O)/C=C/c3ccccc3)nc3ccccc32)cc1`, for which the EC50 is 18.3 µM.
Turning to `C/C(=N\NC(=O)c1ccccc1OCc1ccc(F)cc1)c1ccccn1`, the EC50 was > 80 µM (inactive).
To `CCOc1cc(C=C(C(=O)OC)C(=O)OC)ccc1OCc1ccc([N+](=O)[O-])cc1` belongs > 80 µM (inactive); to `COc1ccc2c(c1OC)C(=O)OC2Nc1nc(-c2ccccc2)cs1` (configuration not stated), > 80 µM (inactive); to `Cc1ccccc1CS(=O)(=O)c1ncc(Cl)c(C(=O)Nc2ccc(F)cc2)n1`, > 80 µM (inactive).
Regarding `O=[N+]([O-])c1ccc(N/N=C/c2cccc(O)c2O)c(S(=O)(=O)N2CCOCC2)c1`, the EC50 result was “inactive”.
As to `COc1cc(/C=C/C(=O)N2C(=O)c3cccc(N)c3C2=O)cc(OC)c1OC`, the EC50 was > 80 µM (inactive).
In the case of `C/C(=N\NC(=O)c1cccc(Br)c1)c1ccccn1`, the EC50 was > 80 µM (inactive).
To `COc1ccc(/C=C\c2nc(=O)c3ccccc3o2)cc1` belongs > 80 µM (inactive); to `CCN(CC)S(=O)(=O)c1cc(NC(=O)Cn2ncc(Cl)c(Cl)c2=O)ccc1C`, > 80 µM (inactive); to `O=C1/C(=C/c2ccccc2[N+](=O)[O-])COc2ccccc21`, > 80 µM (inactive).
To `Cc1ccc(N2CCN(c3ccc(NCc4nc5ccccc5n4C)cc3)CC2)cc1` belongs “inactive”; to `CC1(C)CCSC(/C=C/c2ccccc2)=N1`, > 80 µM (inactive).
For the compound `CN(C)C(=O)CSc1cccc2cccnc12`, the EC50 was > 80 µM (inactive).
As to `CSc1nnc(NC(=O)c2nc(S(=O)(=O)Cc3cccc(C)c3)ncc2Cl)s1`, the EC50 was > 80 µM (inactive).
For `O=C1Nc2ccccc2/C1=C/C(=O)c1cccs1`, the EC50 was > 80 µM (inactive).
As for `Oc1ccc(-c2csc(-c3ccccc3)n2)cc1O`, the EC50 was > 80 µM (inactive).
Turning to `CN(C)CC(C(=O)c1ccccc1)c1ccccc1` (configuration not stated), the EC50 was > 80 µM (inactive).
For `CCCN1Cc2cccc(C(=O)Nc3ccc(-c4nc5ccccc5[nH]4)cc3)c2C1=O`, the EC50 was > 80 µM (inactive).
`Oc1c(CN2CCc3ccccc3C2)cc(Cl)c2cccnc12`: the EC50 is > 80 µM (inactive).
Take `CCOC(=O)/C(=C\c1ccccc1)C(=O)c1cc(C(C)=O)c(Nc2ccccc2)s1`: the EC50 is > 80 µM (inactive).
Take `O=C1NC(=O)C(=Cc2ccc(-c3ccc(Cl)cc3)o2)C(=O)N1`: the EC50 was > 80 µM (inactive).
Regarding `O=C(Nc1ccc(Cl)cc1)/C(=C/c1cccc(O)c1)c1nc2ccccc2s1`, the EC50 was > 80 µM (inactive).
As for `O=C(/C=C/Sc1ccccc1)c1ccc(Cl)cc1`, the EC50 is > 80 µM (inactive).
For the compound `CCc1ccc2nc(N(CCCN(C)C)C(=O)c3ccc(S(=O)(=O)N(C)C4CCCCC4)cc3)sc2c1`, the EC50 was > 80 µM (inactive).
As for `Cc1cccc(-n2ncc(Cl)c(Cl)c2=O)c1`, the EC50 was > 80 µM (inactive).
For the compound `C[C@@H](NC(=O)c1coc(=O)c(Br)c1)c1ccccc1`, the EC50 was > 80 µM (inactive).
With `O=C(/C=C\c1ccccc1OC(=O)c1ccccc1F)c1cc2ccccc2o1`, the EC50 is 13.7 µM.
For the compound `Cc1c(C(=O)c2cccc3ccccc23)c2cccc3c2n1[C@H](CN1CCOCC1)CO3`, the EC50 was > 80 µM (inactive).
As for `Cc1cccnc1Nc1nc(-c2ccc(O)c(O)c2)cs1`, the EC50 result is “inactive”.
Take `C/C(=N\NC(=O)c1cc(-c2cccs2)nc2ccccc12)c1ccccn1`: the EC50 was > 80 µM (inactive).
As to `CCCCOC(=O)/C=C\C(=O)NC(N)=O`, the EC50 is > 80 µM (inactive).
To `CN1CCN(Cc2cc(COCc3ccccc3)c3cccnc3c2O)CC1` belongs “inactive”.
Take `COc1cc(/C=C(/C(=O)c2cccs2)c2nc3ccccc3[nH]2)cc(OC)c1O`: the EC50 was > 80 µM (inactive).
With `CC(C)N=c1scc(-c2ccco2)n1/N=C/c1ccc(O)c(O)c1`, the concentration for a half-maximal effect (EC50) is 4.51 µM.
As to `O=C(N/N=C/c1cccc2cccnc12)c1ccccc1O`, the EC50 was > 80 µM (inactive).
As to `CC(C)[C@H](NC(=O)OC(C)(C)C)c1nnc(S(=O)(=O)Cc2c(F)cccc2Cl)o1`, the EC50 is > 80 µM (inactive).
With `CCOc1ccc(NC(=S)NC(=O)/C=C/c2ccc(OC)c(OC)c2)c([N+](=O)[O-])c1`, the EC50 was > 80 µM (inactive).
Take `CC1CCN(Cc2c(C(=O)N/N=C/c3ccc(C(C)(C)C)cc3)nnn2-c2nonc2N)CC1`: the EC50 was > 80 µM (inactive).
As for `CCCN1C/C(=C/c2ccc3c(c2)OCO3)C(=O)/C(=C/c2ccc3c(c2)OCO3)C1`, the EC50 is > 80 µM (inactive).
To `Cc1cc(NC(=O)c2cc(-c3ccccn3)nc3ccc(Br)cc23)no1` belongs > 80 µM (inactive); to `COc1ccc(-c2cc(C(F)F)n3ncc(C(=O)n4ccnc4C)c3n2)cc1`, > 80 µM (inactive).
For `O=C(N/N=C/c1cccc([N+](=O)[O-])c1)c1cc2c(ccc3ccccc32)o1`, the EC50 was > 80 µM (inactive).
To `C/C(CC(C)(C)C1CCCCC1)=N\NC(N)=S` belongs “inactive”; to `COc1ccc(C(C[N+](=O)[O-])n2nc(C)cc2C)cc1` (configuration not stated), > 80 µM (inactive); to `Cc1ccc(NC(=O)c2nc(S(=O)(=O)Cc3ccccc3C)ncc2Cl)cc1C`, > 80 µM (inactive).
With `FC(F)(F)c1nnc(-c2ccccc2)nc1Sc1ccccc1`, the EC50 was > 80 µM (inactive).
As for `Cc1cccc(C)c1NC(=O)C(Cl)C(=O)c1ccccc1` (configuration not stated), the EC50 is > 80 µM (inactive).
To `CCn1cc(C(=O)NC(=S)Nc2sc3c(c2C(=O)OC)CCCCCC3)cn1` belongs “inactive”.
In the case of `O=C(CSC(=S)N1CCCC1)c1cc(Br)cc(Br)c1O`, the EC50 is > 80 µM (inactive).
As to `CC1(C)CC(=O)C(=Cc2cn(-c3ccccc3)nc2-c2ccc(Cl)cc2)C(=O)C1`, the EC50 is > 80 µM (inactive).
